Experimental data from patent US4526892A, “Dimethylaminoalkyl-3-(ergoline-8'βcarbonyl)-ureas” (Farmitalia Carlo Erba, S.p.A., priority 1982, dated 1985).

Columns and labels:
[1] = system: spontaneously hypertensive male rats, strain SHR; assay: Anti-hypertensive activity: change in blood pressure (BP) in SHR rats; type: in vivo, rat; conditions: for Hypotensive activity vs Hydralazine: compound 25 mg/kg vs Hydralazine 5 mg/kg; for Tolerance on the 4th day: compound 25 mg/kg, unlike Hydralazine
Protocol: (§1) Four spontaneously hypertensive male rats, strain SHR, weighing 250-300 g for each group were used. The animals were treated once a day for four consecutive days. Drugs were administered by gastric gavage, suspended in 5% gum arabic (0.2 ml/100 g body weight) and blood pressure (BP) and heart rate (HR) were measured by indirected tail/cuff method (BP Recorder W+W). Blood pressure and heart rate were measured on the first and fourth days of treatment 1 hour before and 1 and 5 hours after drug administration. Hydralazine and α-methyl-Dopa were used as reference drugs.

[2] = system: spontaneously hypertensive male rats, strain SHR; assay: Change in heart rate (HR) in SHR rats; type: in vivo, rat
Protocol: as §1

[3] = system: mice; assay: Acute toxicity: orientative toxicity in mice; type: in vivo, mouse; conditions: per os, observed for seven days
Description: The male mice for each group were orally treated with drugs at different dose levels for the determination of orientative toxicity.

[4] = system: mice; conditions: per os, data of LD50 from the literature; cited from earlier work
[5] = 5 mg/kg os, 1st day, 1 hour after dosing
[6] = 5 mg/kg os, 1st day, 5 hours after dosing
[7] = 5 mg/kg os, 4th day, 1 hour after dosing
[8] = 5 mg/kg os, 4th day, 5 hours after dosing
[9] = 25 mg/kg os, 1st day, 1 hour after dosing
[10] = 25 mg/kg os, 1st day, 5 hours after dosing
[11] = 25 mg/kg os, 4th day, 1 hour after dosing
[12] = 25 mg/kg os, 4th day, 5 hours after dosing
[13] = 30 mg/kg os, 1st day, 1 hour after dosing
[14] = 30 mg/kg os, 1st day, 5 hours after dosing
[15] = 30 mg/kg os, 4th day, 1 hour after dosing
[16] = 30 mg/kg os, 4th day, 5 hours after dosing
[17] = 100 mg/kg os, 1st day, 1 hour after dosing
[18] = 100 mg/kg os, 1st day, 5 hours after dosing
[19] = 100 mg/kg os, 4th day, 1 hour after dosing
[20] = 100 mg/kg os, 4th day, 5 hours after dosing

| SMILES | Change in BP [1, 5] [mmHg] | Change in BP [1, 6] [mmHg] | Change in BP [1, 7] [mmHg] | Change in BP [1, 8] [mmHg] | Change in BP [1, 9] [mmHg] | Change in BP [1, 10] [mmHg] | Change in BP [1, 11] [mmHg] | Change in BP [1, 12] [mmHg] | Effect on BP (in words) ([1]; 25 mg/kg, 1st and 4th days) | Hypotensive activity vs Hydralazine [1] | Tolerance on the 4th day [1] | Change in HR [2, 5] [beats/minute] | Change in HR [2, 6] [beats/minute] | Change in HR [2, 7] [beats/minute] | Change in HR [2, 8] | Change in HR [2, 9] | Change in HR [2, 10] [beats/minute] | Change in HR [2, 11] [beats/minute] | Change in HR [2, 12] [beats/minute] | Orientative toxicity in mice [3] [mg/kg] | further results |
| --- | --- | --- | --- | --- | --- | --- | --- | --- | --- | --- | --- | --- | --- | --- | --- | --- | --- | --- | --- | --- | --- |
| CN1C[C@H](C(=O)N(C(=O)NC2CCCCC2)C2CCCCC2)C[C@@H]2c3cccc4[nH]cc(c34)C[C@H]21 [Example 7, 1,3-dicyclohexyl-3-(6'-methylergoline-8'β-carbonyl)urea] | -12 | -10 | -15 | -7 | -30 | -57 | -30 | -10 | significant decrease BP | comparable to that of Hydralazine | no tolerance on the 4th day | 0 | -10 | 0 | 0 beats/minute | +5 beats/minute | -20 | -17 | -2 | > 800 | Effect on BP (in words) ([1]; 5 mg/kg): the antihypertensive effect was less remarkable |
| CO[C@]12C[C@@H](C(=O)N(C(=O)NC3CCCCC3)C3CCCCC3)CN(C)[C@@H]1Cc1c[nH]c3cccc2c13 [Example 9, 1,3-dicyclohexyl-3-(10'α-methoxy-6'-methylergoline-8'β-carbonyl)-urea] | – | – | – | – | -30 | -37 | -5 | -23 | – | comparable to that of Hydralazine | no tolerance on the 4th day | – | – | – | – | -20 beats/minute | -10 | 0 | -20 | > 800 | Effect on BP (in words) ([1]; 25 mg/kg, 1st day): marked decrease of BP; Effect on BP (in words) ([1]; 25 mg/kg, 4th day, first hour after dosing): the hypotensive effect was still observed on the fourth day even if less remarkable |
| CO[C@]12C[C@@H](C(=O)N(C(=O)NC3CCCCC3)C3CCCCC3)CN(C)[C@@H]1Cc1cn(C)c3cccc2c13 [Example 10, 1,3-dicyclohexyl-3-(10'α-methoxy-1',6'-dimethylergoline-8'β-carbonyl)-urea] | -11 | -22 | -15 | -16 | -26 | -41 | -51 | -40 | – | comparable to that of Hydralazine | no tolerance on the 4th day | -5 | -20 | -20 | +15 beats/minute | -2 beats/minute | -12 | -17 | -20 | > 800 | Effect on BP (in words) ([1]; os, all tested doses of the compound): a decrease of BP was observed; this effect was long lasting |
| C=CCN1C[C@H](C(=O)N(C(=O)NC2CCCCC2)C2CCCCC2)C[C@@H]2c3cccc4[nH]cc(c34)C[C@H]21 [Example 15, 1,3-dicyclohexyl-3-(6'-allylergoline-8'β-carbonyl)-urea] | – | – | – | – | -35 | -27 | -47 | -38 | decrease in BP both on the 1st and 4th days of treatment but more pronounced on the 4th day | – | – | – | – | – | – | -20 beats/minute | -20 | -27 | -10 | > 800 | Hypotensive activity vs Hydralazine ([1]; 4th day): much more remarkable; Hypotensive activity vs Hydralazine ([1]; first day): comparable to that of Hydralazine |
| C[C@](N)(Cc1ccc(O)c(O)c1)C(=O)O [α-methyl-Dopa, reference compound] | – | – | – | – | – | – | – | – | – | – | – | – | – | – | – | – | – | – | – | – | Change in BP [1, 13]: -10 mmHg; Change in BP [1, 14]: -20 mmHg; Change in BP [1, 15]: -10 mmHg; Change in BP [1, 16]: 0 mmHg; Change in BP [1, 17]: -10 mmHg; Change in BP [1, 18]: -25 mmHg; Change in BP [1, 19]: -20 mmHg; Change in BP [1, 20]: -25 mmHg; Change in HR [2, 13]: +35 beats/minute; Change in HR [2, 14]: +40 beats/minute; Change in HR [2, 15]: +45 beats/minute; Change in HR [2, 16]: +30 beats/minute; Change in HR [2, 17]: +70 beats/minute; Change in HR [2, 18]: +40 beats/minute; Change in HR [2, 19]: +50 beats/minute; Change in HR [2, 20]: +10 beats/minute; Effect on HR (in words) ([2]; SHR rats, os): increase of HR; LD50 (orientative toxicity column) [4]: 5300 mg/kg |
